Measurements reported in PubChem BioAssay AID977628 (Broad Institute, 2014).
Results filed as inconclusive are left out. The source made the active and inactive calls.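 How the source made its calls: active means compound lowering the normal-ribosome reporter at least twice as much as the humanized-ribosome reporter, growth loss under a set limit; inconclusive means no clear call, values can overlap the other calls; inactive means the rest.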

Experiments:
Assay in all cases: growth of wild-type and h24-humanized E. coli strains – h24 mutant RFP vs wild-type GFP, cherry-pick, dose response (AID 977628);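 further: wild-type GFP and h24 humanized RFP strains co-cultured 1 to 1 per well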
[1] = test system: E. coli WT GFP strain growth, fluorescence, 24 h
[2] = test system: E. coli h24 humanized mutant RFP strain growth, fluorescence, 24 h
[3] = test system: E. coli mixed WT/h24 culture total growth, OD600, 24 h

| SMILES | AC50 [1] | AC50 [2] [µM] | AC50 [3] [µM] |
| --- | --- | --- | --- |
| Clc1ccc2nc(CN3CCCc4ccccc43)cn2c1 | > 100 µM (inactive) | > 100 | – |
| O=S(=O)(NCc1ccc2c(c1)OCO2)c1ccc2c(c1)oc1ccccc12 | > 100 µM (inactive) | > 100 | – |
| C[C@]12C(=O)N(c3ccc(F)cc3)C(=O)N1[C@@H]1c3ccccc3OC[C@@H]1[C@H]2c1ccccc1 | – | 5.36 | > 100 |
| COC(C(=O)Nc1ccnn1C1CCN(Cc2ccc(Cl)s2)CC1)c1ccccc1 (stereo not given) | – | > 100 | > 100 |
| COc1cc2cc(C(=O)Nc3ccc4c(c3)OCCO4)[nH]c2cc1OC | – | > 100 | > 100 |
| Cc1ccc(CNS(=O)(=O)c2ccc3c(c2)NC(=O)CS3)cc1 | > 100 µM (inactive) | 8.08 | – |
| CN(c1ccccc1)S(=O)(=O)c1cccc(NC(=O)CCN2C(=O)C3CCCCC3C2=O)c1 (stereo not given) | > 100 µM (inactive) | 9.42 | – |
| COc1ccc(NC(=O)c2sccc2-n2cccc2)cc1 | > 100 µM (inactive) | > 100 | – |
| CC(=O)Nc1ccc2nc3ccccc3nc2c1 | > 100 µM (inactive) | > 100 | – |
| O=C(Nc1cccc2ccccc12)c1ccc([N+](=O)[O-])o1 | > 100 µM (inactive) | > 100 | – |
| N#Cc1ccsc1NC(=O)CSc1nnnn1-c1ccc(O)cc1 | > 100 µM (inactive) | > 100 | – |
| CCOc1ccc(S(=O)(=O)N(C)c2ccc(OCC(=O)Nc3ccc4[nH]c(=O)[nH]c4c3)cc2)cc1 | > 100 µM (inactive) | > 100 | – |
| O=C(CN1C(=O)c2ccccc2C1=O)Nc1cccc(S(=O)(=O)Nc2ccccc2Cl)c1 | > 100 µM (inactive) | > 100 | – |
| O=C(Nc1ccc(S(=O)(=O)N2CCOCC2)cc1)c1ccc([N+](=O)[O-])o1 | > 100 µM (inactive) | 50.9 | – |
| COc1cc(C)ccc1OCc1cc(C(=O)N2CCC(c3ccc(F)cc3)C2)no1 (stereo not given) | > 100 µM (inactive) | > 100 | – |
| CCN(CC)CCN(C(=O)C1CCCCC1)c1nc2cc3c(cc2s1)OCO3 | > 100 µM (inactive) | > 100 | – |
| CC(=O)Nc1nc(C)c(-c2csc(Nc3ccccn3)n2)s1 | > 100 µM (inactive) | > 100 | – |
| O=C(NCc1ccccc1Cl)c1ccc2c(c1)SC1=NS(=O)(=O)CCN12 | – | > 100 | – |
| O=C(Cc1ccc(NC(=O)C2CCCN(C(=O)CCc3ccccc3)C2)cc1)Nc1cccc(C(=O)N2CCCC2)c1 (stereo not given) | > 100 µM (inactive) | > 100 | – |
| Cc1cc(C)cc(NC(=O)c2cccc(NC(=O)c3ccco3)c2)c1 | > 100 µM (inactive) | > 100 | – |
| COc1ccc(NC(=O)c2nc[nH]c2C(=O)N(C)Cc2ccccc2)cc1 | > 100 µM (inactive) | > 100 | – |
| Cc1cc(Br)cn2c(Cc3cccc(Cl)c3)c(-c3ccco3)nc12 | – | > 100 | – |

| SMILES | AC50 [1] | AC50 [2] [µM] | AC50 [3] [µM] |
| --- | --- | --- | --- |
| COc1ccccc1OCC(=O)Nc1ccc(S(=O)(=O)N2CCCCCC2)cc1 | > 100 µM (inactive) | > 100 | – |
| O=C(CSCc1cnn(-c2ccccc2)c1-n1cccc1)NCc1cccnc1 | – | > 100 | – |
| O=C(O)c1ccc(-c2noc(-c3cccc(Cl)c3)n2)cc1 | > 100 µM (inactive) | > 100 | – |
| Cc1ccc(-c2nc3ccc(NS(=O)(=O)c4ccccc4)cc3[nH]2)o1 | > 100 µM (inactive) | 5.12 | – |
| COCC(C)NC(=O)c1nn(Cc2ccccc2)c(=O)c2ccccc12 (stereo not given) | – | > 100 | – |
| COc1ccc2c(c1)c1ncn(Cc3ccccn3)c(=O)c1n2C | – | > 100 | – |
| CCOC(=O)C(C)Sc1nc(N2CCOCC2)c2c(c1C#N)CC(C)(C)OC2 (stereo not given) | – | > 100 | – |
| O=C(Nc1cccc(Oc2ccc3c(c2)C(=O)NC3=O)c1)c1cccs1 | > 100 µM (inactive) | > 100 | – |
| Cc1ccc(NC(=O)c2ccc(NCCCN3CCC(C)CC3)c([N+](=O)[O-])c2)cc1F | > 100 µM (inactive) | 11.1 | – |
| COc1ccc(CCNc2nc(-c3ccncc3)cs2)cc1OC | > 100 µM (inactive) | > 100 | – |
| O=C(NCCc1ccccc1)c1ccc2c(c1)S(=O)(=O)c1ccccc1C2=O | > 100 µM (inactive) | > 100 | – |
| CC(NC(=O)c1ccncc1)c1ccc(Cl)cc1Cl (stereo not given) | – | > 100 | – |
| COc1ccccc1NC(=O)COC(=O)Cc1c[nH]c2ccccc12 | – | > 100 | – |
| CC(=O)NS(=O)(=O)c1ccc(NC(=O)COc2ccc(C(=O)c3ccccc3)cc2)cc1 | > 100 µM (inactive) | > 100 | – |
| O=C(O)CC1(CC(=O)Nc2ccc3sccc3c2)CCCCC1 | – | > 100 | – |
| O=C(Nc1ccc(Br)cc1)c1cccnc1N1CCCCC1 | – | > 100 | – |
| CCc1cccc(NC(=O)CN(C)S(=O)(=O)c2cccc3cccnc23)c1 | – | > 100 | – |
| Cc1nn(C)cc1NC(=O)C[C@@H]1CC[C@@H]2[C@@H](COc3ccc(NC(=O)C4CCC4)cc3C(=O)N2C)O1 | > 100 µM (inactive) | 3.9 | – |
| Cc1cccc(CSCC(=O)N2CCN(S(=O)(=O)c3ccccc3C#N)CC2)c1 | > 100 µM (inactive) | > 100 | – |
| O=C(O)c1cccnc1SCc1ccccc1Cl | > 100 µM (inactive) | > 100 | – |
| O=C(NCCCn1ccnc1)c1sc2cc([N+](=O)[O-])ccc2c1Cl | – | > 100 | – |
| O=C(NCCC1=CCCCC1)c1ccc(Cl)c(S(=O)(=O)Nc2ccccc2)c1 | > 100 µM (inactive) | > 100 | – |

| SMILES | AC50 [1] | AC50 [2] [µM] | AC50 [3] [µM] |
| --- | --- | --- | --- |
| CSc1nc2nc3c(cc2c(=O)n1-c1ccccc1C)CCCC3 | – | 6.76 | – |
| COc1ccc2oc(C(=O)NCc3ccco3)c(C)c2c1 | > 100 µM (inactive) | > 100 | – |
| CC(OC(=O)COc1ccccc1)C(=O)NC1CCCC1 (stereo not given) | – | > 100 | – |
| Cn1ccc2cc(-c3ccc4ncnc(NCc5cccs5)c4c3)ccc21 | – | > 100 | – |
| CCOC(=O)[C@]12Cc3ccccc3[C@H]1N(C)C(=O)c1cc(OC)ccc12 | > 100 µM (inactive) | > 100 | – |
| N#Cc1nc(-c2ccco2)oc1NCc1ccccc1Cl | – | > 100 | – |
| S=C1SCN(Cc2cccnc2)CN1Cc1cccnc1 | – | > 100 | – |
| COc1ccc(CNC(=O)CSCc2c(F)cccc2Cl)cc1 | > 100 µM (inactive) | > 100 | – |
| Cc1cccc(-n2cnc3cc([N+](=O)[O-])ccc32)c1 | – | > 100 | – |
| Cc1ccc(C(=O)Nc2ccc3ncccc3c2)cc1 | – | > 100 | – |
| O=c1[nH]n2c(-c3ccccc3)nc(O)c2c2ccccc12 | > 100 µM (inactive) | 36.6 | – |
| Cc1cc(C(=O)c2ccc3ccccc3c2)c(C)o1 | > 100 µM (inactive) | > 100 | – |
| CCCC(=O)Nc1cccc(C(=O)Nc2ccccc2OCC)c1 | – | > 100 | – |
| O=C1C(c2ccccc2)c2ccccc2N1Cc1ccccc1 (stereo not given) | > 100 µM (inactive) | > 100 | – |
| O=C(Nc1ccc(-c2nnc3n2CCCCC3)cc1)c1cc2ccccc2o1 | – | > 100 | – |
| Cc1ccccc1-n1ncc2c(SCC(=O)N3c4ccccc4CC3C)ncnc21 (stereo not given) | > 100 µM (inactive) | > 100 | – |
| C#CC(C)(C)NC(=O)c1ccc(-c2ccccc2F)cc1 | – | > 100 | – |
| COC(=O)c1ccccc1NC(=O)c1ccc2c(c1)CC(C)O2 (stereo not given) | > 100 µM (inactive) | > 100 | – |
| O=C(Nc1cccc(O)c1)c1cccc(S(=O)(=O)Nc2cccc(O)c2)c1 | – | > 100 | – |
| Cn1cnc([N+](=O)[O-])c1Oc1ccccc1 | – | > 100 | – |
| O=C1c2ccccc2C(c2nnnn2C2CCCCC2)N1CCc1ccc(O)cc1 (stereo not given) | – | > 100 | – |
